# Reference: PubChem BioAssay (NCI)
#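 Compound exposure: 48 hours, 5 concentrations, 96-well plates. The concentration for full growth arrest is given as TGI.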
# Tests used:
# Assay in all cases: growth of human tumour cells (NCI), 48 h
# 786-0 renal = tested on: 786-0 renal
# A498 renal = tested on: A498 renal
# A549 NSCLC = tested on: A549 NSCLC
# CAKI-1 renal = tested on: CAKI-1 renal
# CCRF-CEM leukemia = tested on: CCRF-CEM leukemia
# COLO 205 colon = tested on: COLO 205 colon
# DLD-1 colon = tested on: DLD-1 colon
# DMS 114 small cell lung = tested on: DMS 114 small cell lung
# DMS 273 small cell lung = tested on: DMS 273 small cell lung
# EKVX NSCLC = tested on: EKVX NSCLC
# HCC-2998 colon = tested on: HCC-2998 colon
# HCT-116 colon = tested on: HCT-116 colon
# HCT-15 colon = tested on: HCT-15 colon
# HL-60(TB) leukemia = tested on: HL-60(TB) leukemia
# HOP-62 NSCLC = tested on: HOP-62 NSCLC
# HT29 colon = tested on: HT29 colon
# IGROV1 ovarian = tested on: IGROV1 ovarian
# K-562 leukemia = tested on: K-562 leukemia
# KM12 colon = tested on: KM12 colon
# KM20L2 colon = tested on: KM20L2 colon
# LOX IMVI melanoma = tested on: LOX IMVI melanoma
# LXFL 529 NSCLC = tested on: LXFL 529 NSCLC
# M14 melanoma = tested on: M14 melanoma
# M19-MEL melanoma = tested on: M19-MEL melanoma
# MALME-3M melanoma = tested on: MALME-3M melanoma
# MOLT-4 leukemia = tested on: MOLT-4 leukemia
# NCI-H23 lung = tested on: NCI-H23 lung
# NCI-H522 lung = tested on: NCI-H522 lung
# OVCAR-3 ovarian = tested on: OVCAR-3 ovarian
# OVCAR-4 ovarian = tested on: OVCAR-4 ovarian
# OVCAR-5 ovarian = tested on: OVCAR-5 ovarian
# OVCAR-8 ovarian = tested on: OVCAR-8 ovarian
# RPMI-8226 leukemia = tested on: RPMI-8226 leukemia
# SF-268 CNS = tested on: SF-268 CNS
# SF-295 CNS = tested on: SF-295 CNS
# SF-539 CNS = tested on: SF-539 CNS
# SK-MEL-2 melanoma = tested on: SK-MEL-2 melanoma
# SK-MEL-28 melanoma = tested on: SK-MEL-28 melanoma
# SK-MEL-5 melanoma = tested on: SK-MEL-5 melanoma
# SK-OV-3 ovarian = tested on: SK-OV-3 ovarian
# SN12C renal = tested on: SN12C renal
# SNB-19 CNS = tested on: SNB-19 CNS
# SNB-75 CNS = tested on: SNB-75 CNS
# SNB-78 CNS = tested on: SNB-78 CNS
# SW-620 colon = tested on: SW-620 colon
# TK-10 renal = tested on: TK-10 renal
# U251 CNS = tested on: U251 CNS
# UACC-257 melanoma = tested on: UACC-257 melanoma
# UACC-62 melanoma = tested on: UACC-62 melanoma
# UO-31 renal = tested on: UO-31 renal
# XF 498 CNS = tested on: XF 498 CNS
# ACHN renal = tested on: ACHN renal
# HOP-92 NSCLC = tested on: HOP-92 NSCLC
# NCI-H226 lung = tested on: NCI-H226 lung
# NCI-H460 lung = tested on: NCI-H460 lung
# RXF 393 renal = tested on: RXF 393 renal
# SR leukemia = tested on: SR leukemia
structure (smiles),measurement,setting,value
N#CCCN(c1ccc(/C=N/c2nc(-c3ccccc3)cs2)cc1)S(=O)(=O)c1ccccc1,TGI,786-0 renal,> 100 µM
same,TGI,A498 renal,> 100 µM
same,TGI,A549 NSCLC,> 100 µM
same,TGI,CAKI-1 renal,> 100 µM
same,TGI,CCRF-CEM leukemia,> 100 µM
same,TGI,COLO 205 colon,> 100 µM
same,TGI,DLD-1 colon,> 100 µM
same,TGI,DMS 114 small cell lung,> 100 µM
same,TGI,DMS 273 small cell lung,> 100 µM
same,TGI,EKVX NSCLC,> 100 µM
same,TGI,HCC-2998 colon,> 100 µM
same,TGI,HCT-116 colon,> 100 µM
same,TGI,HCT-15 colon,> 100 µM
same,TGI,HL-60(TB) leukemia,> 100 µM
same,TGI,HOP-62 NSCLC,> 100 µM
same,TGI,HT29 colon,> 100 µM
same,TGI,IGROV1 ovarian,> 100 µM
same,TGI,K-562 leukemia,> 100 µM
same,TGI,KM12 colon,> 100 µM
same,TGI,KM20L2 colon,> 100 µM
same,TGI,LOX IMVI melanoma,> 100 µM
same,TGI,LXFL 529 NSCLC,> 100 µM
same,TGI,M14 melanoma,> 100 µM
same,TGI,M19-MEL melanoma,> 100 µM
same,TGI,MALME-3M melanoma,> 100 µM
same,TGI,MOLT-4 leukemia,> 100 µM
same,TGI,NCI-H23 lung,> 100 µM
same,TGI,NCI-H522 lung,> 100 µM
same,TGI,OVCAR-3 ovarian,> 100 µM
same,TGI,OVCAR-4 ovarian,> 100 µM
same,TGI,OVCAR-5 ovarian,> 100 µM
same,TGI,OVCAR-8 ovarian,> 100 µM
same,TGI,RPMI-8226 leukemia,> 100 µM
same,TGI,SF-268 CNS,> 100 µM
same,TGI,SF-295 CNS,> 100 µM
same,TGI,SF-539 CNS,> 100 µM
same,TGI,SK-MEL-2 melanoma,> 100 µM
same,TGI,SK-MEL-28 melanoma,> 100 µM
same,TGI,SK-MEL-5 melanoma,> 100 µM
same,TGI,SK-OV-3 ovarian,> 100 µM
same,TGI,SN12C renal,> 100 µM
same,TGI,SNB-19 CNS,> 100 µM
same,TGI,SNB-75 CNS,93.5 µM
same,TGI,SNB-78 CNS,> 100 µM
same,TGI,SW-620 colon,> 100 µM
same,TGI,TK-10 renal,> 100 µM
same,TGI,U251 CNS,> 100 µM
same,TGI,UACC-257 melanoma,> 100 µM
same,TGI,UACC-62 melanoma,> 100 µM
same,TGI,UO-31 renal,> 100 µM
same,TGI,XF 498 CNS,> 100 µM
O=C(Nc1ccc(F)cc1)C(=O)C(C(=O)c1ccccc1F)C1OC(=O)c2ccccc21 (centres undefined),TGI,A498 renal,> 100 µM
same,TGI,A549 NSCLC,> 100 µM
same,TGI,ACHN renal,> 100 µM
same,TGI,CAKI-1 renal,> 100 µM
same,TGI,CCRF-CEM leukemia,90.8 µM
same,TGI,COLO 205 colon,> 100 µM
same,TGI,DLD-1 colon,> 100 µM
same,TGI,DMS 114 small cell lung,> 100 µM
same,TGI,DMS 273 small cell lung,> 100 µM
same,TGI,EKVX NSCLC,> 100 µM
same,TGI,HCC-2998 colon,> 100 µM
same,TGI,HCT-116 colon,> 100 µM
same,TGI,HCT-15 colon,> 100 µM
same,TGI,HL-60(TB) leukemia,> 100 µM
same,TGI,HOP-62 NSCLC,> 100 µM
same,TGI,HOP-92 NSCLC,> 100 µM
same,TGI,HT29 colon,> 100 µM
same,TGI,IGROV1 ovarian,> 100 µM
same,TGI,K-562 leukemia,> 100 µM
same,TGI,KM12 colon,> 100 µM
same,TGI,KM20L2 colon,> 100 µM
same,TGI,LOX IMVI melanoma,> 100 µM
same,TGI,LXFL 529 NSCLC,> 100 µM
same,TGI,M14 melanoma,> 100 µM
same,TGI,MOLT-4 leukemia,> 100 µM
same,TGI,NCI-H226 lung,63.5 µM
same,TGI,NCI-H23 lung,> 100 µM
same,TGI,NCI-H460 lung,> 100 µM
same,TGI,NCI-H522 lung,71.8 µM
same,TGI,OVCAR-4 ovarian,> 100 µM
same,TGI,OVCAR-5 ovarian,> 100 µM
same,TGI,OVCAR-8 ovarian,> 100 µM
same,TGI,RPMI-8226 leukemia,> 100 µM
same,TGI,RXF 393 renal,> 100 µM
same,TGI,SF-268 CNS,> 100 µM
same,TGI,SF-295 CNS,> 100 µM
same,TGI,SF-539 CNS,89.9 µM
same,TGI,SK-MEL-2 melanoma,> 100 µM
same,TGI,SK-MEL-28 melanoma,> 100 µM
same,TGI,SK-MEL-5 melanoma,> 100 µM
same,TGI,SK-OV-3 ovarian,> 100 µM
same,TGI,SN12C renal,> 100 µM
same,TGI,SNB-19 CNS,> 100 µM
same,TGI,SNB-75 CNS,> 100 µM
same,TGI,SNB-78 CNS,> 100 µM
same,TGI,SR leukemia,59.6 µM
same,TGI,SW-620 colon,> 100 µM
same,TGI,TK-10 renal,> 100 µM
same,TGI,U251 CNS,66.1 µM
same,TGI,UACC-257 melanoma,> 100 µM
same,TGI,UACC-62 melanoma,> 100 µM
same,TGI,UO-31 renal,> 100 µM
same,TGI,XF 498 CNS,> 100 µM
